Where a name gives a salt, the structure may show the parent alone.
| melting point [°C] | Structure (SMILES) |
| --- | --- |
| 137 | CC(C)S(=O)(=O)c1ccc2c(c1)nc(CC1CCCC1)n2CC1CC1 |
| 151 | CC(C)S(=O)(=O)c1ccc2c(c1)nc(CC(C)(C)C)n2CCN1CCOCC1 |
| 107 | CC(C)S(=O)(=O)c1ccc2c(c1)nc(CC1CC1)n2CC1CC1 |
| 217 | CC(C)(C)Cc1nc2cc(S(C)(=O)=O)ccc2n1CC1CC1 (as salt: hydrochloride) |
| 122 | CC(C)S(=O)(=O)c1ccc2c(c1)nc(CC1(C)CCCC1)n2CC1CC1 |

The remaining lines, values behind:

| Structure (SMILES) | melting point [°C] |
| --- | --- |
| CC(C)S(=O)(=O)c1ccc2c(c1)nc(CC(C)(C)C)n2CCN(C)C | 116 |
| CC(C)S(=O)(=O)c1ccc2c(c1)nc(CC(C)(C)C)n2CC1(O)CCOCC1 | 189 |
| CCS(=O)(=O)c1ccc2c(c1)nc(CC(C)(C)C)n2CC1(O)CCCC1 | 172 |
| CC(C)S(=O)(=O)c1cnc2c(c1)nc(CC(C)(C)C)n2CC1(O)CCOCC1 | 179 |
| CC(C)(C)Cc1nc2cc(S(=O)(=O)c3ccccc3)ccc2n1CC1CC1 | 173 |
| CC(C)S(=O)(=O)c1cnc2c(c1)nc(CC(C)(C)C)n2CCN(C)C | 119 |
| CCS(=O)(=O)c1ccc2c(c1)nc(CC(C)(C)C)n2CC1CCCO1 (stereo not drawn) | 142 |
| CC(C)S(=O)(=O)c1cnc2c(c1)nc(CC(C)(C)C)n2CC1CCOCC1 | 201 |
| CCS(=O)(=O)c1ccc2c(c1)nc(CC(C)(C)C)n2CCOC(F)(F)F | 133 |
| CCS(=O)(=O)c1cnc2c(c1)nc(CC(C)(C)C)n2CC1CCOCC1 | 191 |

Source: patent US7598393B2 (dated 2009)
